Test results: paper PMC9027131, “Dual PI3K/Akt Inhibitors Bearing Coumarin-Thiazolidine Pharmacophores as Potential Apoptosis Inducers in MCF-7 Cells” (Pharmaceuticals, 2022)

How the values were obtained:
caspase-9 = assay: Cleaved caspase-9 level by ELISA in MCF-7 cells; type: cell-based, human; settings: MCF-7, 48 h; control 2.712 ± 0.09; means ± sd, n = 3
Protocol: Apoptosis is a programmed cell death modality that includes an array of steps such as activation of caspases alongside endonucleases leading to DNA cleavage, eventually causing the formation of apoptotic bodies. Caspases are classified into effector caspases, such as caspase-3, -6, and -7, and initiator caspases, including either caspase-2, -8, and -10 (extrinsic pathway) or caspase-9 (intrinsic pathway).
The level of cleaved caspase-9 was assessed in both untreated/control MCF-7 cells and following VIIb treatment using DRG® Caspase-9 (human) ELISA (EIA-4860), following the manufacturer’s instructions (DRG International Inc., Springfield, NJ, USA). The data were means ± sd; n = 3.

PI3K-γ = target: T1, PI3K-γ (Homo sapiens, UniProt P48736); assay: PI3Kγ (p110γ/PIK3R5) enzyme inhibition assay kit; type: biochemical; settings: means ± sd, n = 3; read-out: IC50 (µM) PI3K-γ Isoform
T1 construct: purchased BPS Bioscience, Inc 79803
Source text: Accumulating evidence highlighted that PI3K signaling pathway upregulation is highly implicated in breast cancer development and disease progression as well as resistance to hormones and cytotoxic therapy. Therefore, it is essential to elucidate the effect of the novel compound, VIIb, on the PI3K/Akt signaling pathway by using in vitro PI3K class 1A enzyme inhibition assay conducted on PI3K-α and PI3K-γ isoforms as well as an Akt-1 enzyme inhibition assay. […] Furthermore, targeting the PI3K-γ isoform in breast cancer could contribute to enhancing the anti-tumor immunity.
The in vitro inhibition of PI3K and Akt kinase activities by VIIb was assessed using a PI3Kα (p110α/p85) assay kit (Catalog #79781; BPS Bioscience, Inc, San Diego, CA, USA), PI3Kγ (p110γ/PIK3R5) assay kit (Catalog #79803; BPS Bioscience, Inc, San Diego, CA, USA), and Akt Kinase Activity assay kit (ab139436; Abcam, Cambridge, UK) following the manufacturer’s instructions as described previously. The results were expressed as IC50 values using dose–response curves and linear regression equations.

MCF-7 cells = assay: Annexin V-FITC/PI apoptosis assay by flow cytometry; type: cell-based, human
Source text: Remarkably, clinical oncology aims at developing novel targeted cancer therapies that could induce apoptosis in neoplastic cells to enhance their eradication. Since loss of apoptosis is closely related to cancer cell survival and abnormal growth, induction of apoptotic signaling pathways is a crucial mechanism in targeted cancer therapy. To further explore the link between apoptosis rates and VIIb treatment, the pro-apoptotic activity of this novel compound was investigated by flow cytometry using both Annexin V (V) and propidium iodide (PI) dyes. A distinctive feature of early apoptosis is phosphatidylserine transfer toward the cellular surface. Thus, phosphatidylserine can be detected by fluorochrome-tagged anticoagulant protein V. Therefore, the viable cells remained unstained (V^−/PI^−).
Control untreated and MCF-7 cells treated with compound VIIb at its IC50 (µM) for 48 h were subjected to apoptotic analysis using Annexin V (V) and propidium iodide (PI) fluorescent dyes.
Cell cycle analysis and apoptosis rates following VIIb treatment were investigated using a Propidium Iodide Flow Cytometry Kit (ab139418; Abcam, Cambridge, UK) and Annexin V-FITC apoptosis kit (Catalog: K101-25; BioVision Research Products, San Francisco, CA, USA), respectively, following the manufacturer’s instructions as stated by a previous study.

Cyclin D1, p-PI3K, p-Akt = assay: Western blot in MCF-7 cells; type: cell-based, human; settings: MCF-7, IC50, 48 h, vs control untreated cells
Source text: Cyclin D1 activity is essential for the G1 to S phase transition. Moreover, the PI3K/Akt axis is crucial for cell growth and apoptosis. The effects of VIIb on Cyclin D1 and the PI3K/Akt pathway in MCF-7 cells was investigated adopting reported procedures. […] Herein, Western blot results confirmed our previous findings, highlighting the ability of the novel compound, VIIb, to inhibit the PI3K/Akt signaling pathway. […] Cyclin D1 is a proto-oncogene and a major regulator of cell cycle progression. In addition, Cyclin D1 overexpression has been linked to both breast tumorigenesis and tumor progression as well as to the development of endocrine resistance in breast cancer cells.
Whole-cell protein lysates obtained from both control as well as VIIb-treated (IC50 (µM), for 48 h) MCF-7 cells were resolved by SDS-PAGE, and then immunoblotting was conducted with antibodies against cyclin D, p-Akt, and p-PI3K compared to the housekeeping protein β-Actin.
Western blot analysis was conducted using the following primary antibodies: anti-p-Akt (1:5000; ab81283), anti-Cyclin D1 (1:1000; ab226977), anti-p-PI3K (1:1000; ab278545), and anti-beta-actin (1:1000; ab8227). Firstly, VIIb-treated and untreated cells were rinsed with PBS, and then cold lysis buffer was added to induce cell lysis. After centrifugation, the supernatants were collected, and harvested proteins were quantified by Bradford assay and then resolved on SDS-PAGE followed by electroblotting onto polyvinylidene fluoride membranes. Later, membrane blocking was conducted using 5% skimmed milk in 0.1% Tween-20 in PBS (PBST). Then membranes were incubated with the aforementioned primary antibodies at 4 °C. Following 12-h incubation, the membranes were soaked in PBST thrice followed by 1-h incubation with appropriate secondary antibodies. Antibodies were supplied from Abcam (Cambridge, UK). The signals were visualized with a chemiluminescence ECL kit (Perkin Elmer, Waltham, MA, USA) following the manufacturer’s instructions, and images were obtained using a Biorad Imager.

[1] = MCF-7, with respect to control cells

T1 sequence (P48736 whole entry, canonical isoform): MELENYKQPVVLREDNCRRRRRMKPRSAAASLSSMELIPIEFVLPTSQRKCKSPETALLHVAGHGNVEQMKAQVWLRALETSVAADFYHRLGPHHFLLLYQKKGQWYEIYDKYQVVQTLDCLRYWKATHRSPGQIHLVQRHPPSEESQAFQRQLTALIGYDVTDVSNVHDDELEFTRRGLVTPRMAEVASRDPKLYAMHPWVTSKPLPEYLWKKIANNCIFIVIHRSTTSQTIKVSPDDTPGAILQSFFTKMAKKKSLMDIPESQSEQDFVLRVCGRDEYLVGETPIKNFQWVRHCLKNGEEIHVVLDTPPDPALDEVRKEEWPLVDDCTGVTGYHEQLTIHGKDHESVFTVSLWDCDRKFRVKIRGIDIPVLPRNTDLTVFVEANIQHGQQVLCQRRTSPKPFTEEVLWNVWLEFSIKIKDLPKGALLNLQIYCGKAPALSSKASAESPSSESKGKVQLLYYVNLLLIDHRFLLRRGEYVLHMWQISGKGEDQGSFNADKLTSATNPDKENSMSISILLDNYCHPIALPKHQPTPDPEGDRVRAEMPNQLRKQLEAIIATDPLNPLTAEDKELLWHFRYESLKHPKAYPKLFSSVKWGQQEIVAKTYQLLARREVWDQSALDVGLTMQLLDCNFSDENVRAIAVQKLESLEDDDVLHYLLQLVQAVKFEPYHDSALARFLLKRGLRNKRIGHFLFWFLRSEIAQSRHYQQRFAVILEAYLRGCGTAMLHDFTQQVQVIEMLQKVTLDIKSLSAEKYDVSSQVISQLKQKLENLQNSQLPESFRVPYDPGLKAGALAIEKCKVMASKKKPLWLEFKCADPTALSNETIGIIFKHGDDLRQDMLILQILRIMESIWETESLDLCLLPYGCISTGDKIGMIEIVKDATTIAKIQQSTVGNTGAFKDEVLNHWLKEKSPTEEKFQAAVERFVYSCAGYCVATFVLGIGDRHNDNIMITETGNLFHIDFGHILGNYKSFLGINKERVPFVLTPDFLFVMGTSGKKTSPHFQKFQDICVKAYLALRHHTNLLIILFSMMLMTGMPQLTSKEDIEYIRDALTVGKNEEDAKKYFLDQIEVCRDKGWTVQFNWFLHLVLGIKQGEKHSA
T1 sequence (Q8WYR1 whole entry partner, canonical isoform): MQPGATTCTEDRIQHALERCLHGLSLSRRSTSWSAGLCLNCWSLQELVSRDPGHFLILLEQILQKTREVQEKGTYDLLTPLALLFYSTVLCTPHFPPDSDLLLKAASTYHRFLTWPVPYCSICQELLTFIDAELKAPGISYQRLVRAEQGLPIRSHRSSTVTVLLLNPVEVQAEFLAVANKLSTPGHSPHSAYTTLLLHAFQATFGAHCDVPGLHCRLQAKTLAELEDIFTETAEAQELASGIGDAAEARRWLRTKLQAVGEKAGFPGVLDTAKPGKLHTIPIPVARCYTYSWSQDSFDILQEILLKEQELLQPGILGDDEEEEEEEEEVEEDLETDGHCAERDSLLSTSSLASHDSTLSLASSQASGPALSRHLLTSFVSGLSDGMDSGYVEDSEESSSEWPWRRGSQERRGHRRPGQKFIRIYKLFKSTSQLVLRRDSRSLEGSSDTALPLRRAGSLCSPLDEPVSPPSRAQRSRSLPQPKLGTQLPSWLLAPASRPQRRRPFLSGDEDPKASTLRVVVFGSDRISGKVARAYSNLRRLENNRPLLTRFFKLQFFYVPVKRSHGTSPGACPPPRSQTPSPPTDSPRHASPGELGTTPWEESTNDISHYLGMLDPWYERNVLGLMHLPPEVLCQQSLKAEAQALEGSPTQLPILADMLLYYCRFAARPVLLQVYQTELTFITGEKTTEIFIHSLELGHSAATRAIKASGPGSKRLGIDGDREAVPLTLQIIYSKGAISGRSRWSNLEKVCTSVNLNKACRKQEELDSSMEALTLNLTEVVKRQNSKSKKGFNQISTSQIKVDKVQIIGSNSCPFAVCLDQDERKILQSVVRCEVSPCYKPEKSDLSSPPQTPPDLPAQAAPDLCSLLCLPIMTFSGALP

IC50 (PI3K-γ): 34.7 ± 1.88 µM
Structure (SMILES): C/C(=N/N=C1/SCC(=O)N1C(=O)c1ccccc1)c1c(O)ccc2c(C)cc(=O)oc12 [VIIb]
Caspase-9 Level (caspase-9): 21.61 ± 0.14 ng/mL | Apoptosis % Late (V+/PI+) (MCF-7 cells; MCF-7, treated at IC50, 48 h, control 0.17): 21.05% | Apoptosis % Early (V+/PI−) (MCF-7 cells; MCF-7, treated at IC50, 48 h, control 0.48): 2.51% | Necrosis% (MCF-7 cells; MCF-7, treated at IC50, 48 h, control 0.90): 11.69% | Apoptosis % Total (MCF-7 cells; MCF-7, treated at IC50, 48 h, control 1.55): 35.25% | fold increase in early apoptotic cells (MCF-7 cells; [1]): 5 fold | fold increase in late apoptotic cells (MCF-7 cells; [1]): 100 fold | level of Cyclin D1 (Cyclin D1, p-PI3K, p-Akt): effectively suppressed | level of p-Akt (Cyclin D1, p-PI3K, p-Akt): effectively suppressed | level of p-PI3K (Cyclin D1, p-PI3K, p-Akt): effectively suppressed
